This passage reports IC50 results from PubChem BioAssay AID1985 (Southern Research Specialized Biocontainment Screening …, 2009).

Each structure is given as a SMILES string.

This experiment deals with S. Typhi PhoP-promoter GFP reporter, fluorescence, 4 h. As to the kind of experiment: modified counter assay using GFP fluorescence, PhoP regulon inhibitor project, dose response (AID 1985).

In the case of `CN(C)CC/C=C1/c2cc(F)ccc2Sc2ccc(Cl)cc21`, the half-maximal inhibitory concentration (IC50) was 84.9 µM. Then `C#CCOCCOCCOCCNc1nc(N2CCN(C(=O)CCCCCCCCCCNC(=O)[C@H](CCCCN)n3cc(C)nn3)CC2)nc(N2CCN(C(=O)CCCCCCCCCCNC(=O)[C@H](CCCN=C(N)N)n3cc(C[C@@H](C)CC)nn3)CC2)n1`, with 31.9 µM; and `CN1CCN(C(c2ccc(Cl)cc2)c2cc(Cl)c3cccnc3c2O)CC1` (stereo unspecified), with 31.8 µM. Then `CCCCCCCCCCCCCCCCn1cc[n+](C)c1`, with 19.1 µM; and `Cc1cc([N+](=O)[O-])nn1CC(=O)N/N=C/c1ccccc1O`, with 35.4 µM; and `C[C@H]1c2cccc(O)c2C(O)=C2C(=O)[C@]3(O)C(O)=C(C(N)=O)C(=O)[C@@H](N(C)C)[C@@H]3[C@@H](O)[C@@H]21`, with 1.97 µM. Under `Cc1ccc(-c2csc(N=C(N)N)n2)c(C)c1` stands 64.8 µM. Consider `Cc1cccc(Nc2cc(C)c3c(O)cccc3n2)c1C`, for which the half-maximal inhibitory concentration (IC50) was 49.6 µM. Under `CCCCCCCNC(=O)C1(CC2CC(c3ccc(Cl)cc3)=NO2)CCNCC1` (stereo unspecified) stands 39 µM; under `COc1cc(CNCCc2c[nH]c3ccccc23)ccc1OCc1ccc(F)cc1`, 82.7 µM; under `CCCCn1c(NS(=O)(=O)c2ccccc2)c(C(=O)OCC)c2nc3ccccc3nc21`, 110 µM. With `Cc1ccc(C(=O)Sc2cccccc2=O)cc1`, the IC50 was 1.97 µM.

Regarding `CCCCNC1=CC(=O)C(=O)c2ccccc21`, the half-maximal inhibitory concentration (IC50) is 104 µM. Then `O=C(Nc1c2ccccc2nc2ccccc12)C(Cl)(Cl)Cl`, with 43.8 µM; and `O=C(NNC(=S)NC(=O)c1ccccc1)c1ccc(O)cc1`, with 71.1 µM; and `O=C(NNC(=S)NC(=O)c1ccco1)c1ccc(F)cc1`, with 96.8 µM. As for `O=C(O)c1ccc(N2C(=O)CSC2=S)cc1`, the IC50 is 144 µM.

In the case of `Cc1ccc(NC(=O)c2ccc([N+](=O)[O-])o2)c(C)c1`, the IC50 was 38.9 µM.

Regarding `CN1C(=O)NC(c2cccc(O)c2)C(C(=O)c2cccs2)C1(O)C(F)(F)F` (stereo unspecified), the IC50 was 40.6 µM. Then `CO/N=C(/C(=O)N[C@@H]1C(=O)N2C(C(=O)O)=CCS[C@H]12)c1cnc(N)s1`, with 59.8 µM; and `O=C(NC1CCCCC1)c1ccc([N+](=O)[O-])o1`, with 39.5 µM; and `Cc1cc(NS(=O)(=O)c2ccc(NC(=O)Nc3cccc(Cl)c3)cc2)no1`, with 137 µM. For the molecule `CCN(CC)CCNc1nc(-c2ccc(OC)cc2)c(-c2ccc(OC)cc2)s1`, the IC50 was less than 0.23 µM. Then `CC[C@H]1OC(=O)[C@H](C)[C@@H](O[C@H]2C[C@@](C)(OC)[C@@H](O)[C@H](C)O2)[C@H](C)[C@@H](O[C@@H]2O[C@H](C)C[C@H](N(C)C)[C@H]2O)[C@](C)(O)C[C@@H](C)[C@@H]2N[C@@H](COCCOC)O[C@H]([C@H]2C)[C@]1(C)O`, with 45.4 µM; and `CCc1cccc2c(C(=O)COC(=O)c3ccc([N+](=O)[O-])s3)c[nH]c12`, with 10.4 µM.

`c1ccc(Nc2nc(NCC3CCCO3)c3ccccc3n2)cc1` (stereo unspecified): the concentration for half-maximal inhibition (IC50) is 16.8 µM.

Take `COc1c(N2CCN(C(=S)Nc3ccccc3F)C(C)C2)c(F)cc2c(=O)c(C(=O)O)cn(C3CC3)c12` (stereo unspecified): the IC50 is 0.441 µM. With `CN(C)c1ccc2nc3ccc(=[N+](C)C)cc-3sc2c1`, the 50% inhibitory concentration (IC50) was 22.7 µM.

As for `Cc1c2ccncc2c(C)c2c1[nH]c1ccccc12`, the IC50 is 32.9 µM.

With `O=c1cc(-c2ccccc2)cc(-c2ccccc2)n1O`, the IC50 was 51.7 µM. Then `CNCCCN1c2ccccc2CCc2ccccc21`, with 143 µM; and `O=C(/C=C/c1ccccc1)NC(=S)NNC(=O)c1cnccn1`, with 146 µM. Turning to `O=C(N/N=C/c1cc(Cl)ccc1O)c1ccncc1`, the IC50 was 22 µM.

Take `COc1c(N2CCNC(C)C2)c(F)cc2c(=O)c(C(=O)O)cn(C3CC3)c12` (stereo unspecified): the IC50 is less than 0.23 µM. Under `O=C1OCC(CO)(CO)N=C1NNc1ccc(Cl)c(Cl)c1` stands 26.1 µM; under `Cc1occc1C(=O)N/N=C/C=C/c1ccccc1`, 41.6 µM. Under `O=C(CSc1nc2ccccc2[nH]1)Nc1ccc(F)c(F)c1` stands 46.9 µM; under `Cc1cc(OCC(O)CNC(C)c2ccccc2)ccc1C(C)C` (stereo unspecified), 82.6 µM. Then `COc1cccc(Nc2nc(NCC3CCCO3)c3ccccc3n2)c1` (stereo unspecified), with 34.2 µM. `CC1CCc2c(N3CCC(O)CC3)c(F)cc3c(=O)c(C(=O)O)cn1c23` (stereo unspecified): the IC50 is 4.44 µM.

With `NC1=NC2(CCCCC2)N=C(Nc2ccc(Br)cc2)N1`, the IC50 is 28.8 µM. Take `O=C(NC(=S)NNC(=O)c1ccco1)c1ccc(Br)cc1`: the IC50 was 69 µM. `CN(C)CCCN(C(=O)COc1ccccc1)c1nc2ccc(Cl)cc2s1`: the half-maximal inhibitory concentration (IC50) was 141 µM. Under `O=C(Nc1cccc(Br)c1)c1cc2ccccc2o1` stands 47.4 µM. In the case of `O=C(N/N=C/c1ccc(O)c(O)c1)C1c2ccccc2Oc2ccccc21`, the IC50 is 106 µM.

As for `Oc1cccc(Nc2nc(NCC3CCCO3)c3ccccc3n2)c1` (stereo unspecified), the IC50 is 77.3 µM. With `COc1cc(/C=C2/C(=O)NN(c3ccc(F)cc3)C2=O)cc([N+](=O)[O-])c1O`, the IC50 was 34.7 µM. Then `O=C(Cc1cccs1)N/N=C\c1ccc([N+](=O)[O-])s1`, with 20.1 µM; and `CC(C)(C)CC(C)(C)c1ccc(OCCOCC[N+](C)(C)Cc2ccccc2)cc1`, with 34.9 µM. Under `Nc1ncn(C2O[C@H](CO)[C@@H](O)[C@H]2O)c(=O)n1` (stereo partly specified) stands 10.1 µM; under `OC(CNCCc1ccc(C(F)(F)F)cc1)COC(c1ccccc1)c1ccccc1` (stereo unspecified), 82.9 µM. Under `Nc1c2ccccc2nc2ccccc12` stands 48 µM.

`CCN(CC(=O)NC(C)(C)C)C(=O)COc1c(Cl)cc(Cl)c2ccc(C)nc12`: the concentration for half-maximal inhibition (IC50) is 43.5 µM. Under `Nc1nc(Nc2ccccc2)nc2ccccc12` stands 56.2 µM; under `COc1ccc(N2C3=C(CC4=C2CC(C)(C)CC4=O)C(=O)CC(C)(C)C3)cc1`, 146 µM; under `O=C(CSC1=NC(=O)C(c2ccccc2)C(=O)N1)Nc1cccc(Cl)c1` (stereo unspecified), 20.6 µM. Then `O=C1C2=C(Nc3ccccc3SC2c2ccco2)c2ccccc21` (stereo unspecified), with 120 µM; and `O=S(=O)(Nc1ncccn1)c1ccc(NC(=S)Nc2ccc(Cl)cc2)cc1`, with 97.1 µM. Then `O=C(CCN1CCN(c2ccccc2)CC1)c1ccc(Br)cc1`, with 98.6 µM. With `CCOC(=O)c1c(-c2ccc(-c3ccccc3)cc2)csc1NC(=O)CNCCN(C)C`, the concentration for half-maximal inhibition (IC50) is 82.2 µM.

With `COc1cc(C)c(Cc2cnc(N)nc2N)cc1OC`, the concentration for half-maximal inhibition (IC50) is 2.4 µM. Under `Cc1cccc(C(=O)NCCC(=O)Nc2ccc(F)c([N+](=O)[O-])c2)c1` stands 144 µM.

Regarding `Cc1ccc(S(=O)(=O)NNc2ccccc2)cc1`, the IC50 is 134 µM. Under `OCCNc1nc(Nc2ccccc2)nc2ccccc12` stands 35.2 µM. `C/C(=N\NC(=O)c1ccc(CN2CCc3ccccc3C2)cc1)c1ccccc1O`: the concentration for half-maximal inhibition (IC50) is 42 µM.

For the molecule `CCOc1cccc(/C=N/NC(=O)c2cc(C3CC3)[nH]n2)c1O`, the half-inhibitory concentration (IC50) is 136 µM.

Regarding `O=C(Nc1nc(-c2ccccn2)cs1)c1ccc(Br)s1`, the IC50 is 20.1 µM. Under `Brc1ccc2c(c1)C(OC1CN3CCC1CC3)c1ccccc1CS2` (stereo unspecified) stands 95.5 µM; under `CCn1cc(C(=O)O)c(=O)c2cc(F)c(N3CCNCC3)cc21`, less than 0.23 µM. Under `CN(C)c1ccc(O)c2c1CC1CC3C(N(C)C)C(=O)C(C(N)=O)=C(O)[C@@]3(O)C(=O)C1=C2O` (stereo partly specified) stands 3.21 µM; under `O=C(N/N=C/c1ccccn1)c1cccs1`, 42.8 µM; under `Cc1ccc(C[n+]2c(-c3ccc(C)cc3)cc(-c3ccc(C)cc3)cc2-c2ccc(C)cc2)cc1`, 15.6 µM. Under `O=C(N/N=C/c1ccc([N+](=O)[O-])s1)c1cccnc1` stands 22.8 µM; under `CCOc1ccc(Nc2c3ccccc3nc3ccccc23)cc1`, 56.7 µM. With `CCN1CCCC1CNC(=O)C1CCN(Cc2nc(-c3cccc(Br)c3)oc2C)CC1` (stereo unspecified), the IC50 was 143 µM.

`CN1CCN(C(c2cccc(Cl)c2)c2ccccc2Cl)CC1` (stereo unspecified): the IC50 is 107 µM. Under `C/C(Cn1nnc([N+](=O)[O-])n1)=N\NC(=O)c1ccccc1` stands 149 µM; under `O=C(Nc1nnc(C(F)(F)F)s1)c1ccc(Br)s1`, 66.8 µM. Under `C/C(=N/Nc1ccnc2cc(Cl)ccc12)c1ccc(N)cc1` stands 55.3 µM; under `O=C(N/N=C/c1cc(Cl)cc(Cl)c1O)c1ccncc1`, 20.2 µM. Then `CCCCCCCCCCCCCCCC[N+](C)(C)CC`, with 22.4 µM. For `CC(NCc1ccc(Cl)cc1)C(O)c1ccccc1` (stereo unspecified), the half-inhibitory concentration (IC50) was 128 µM. Under `Cc1[nH]n(-c2ccccc2)c(=O)c1C(c1cccc([N+](=O)[O-])c1O)c1c(C)[nH]n(-c2ccccc2)c1=O` stands 48.5 µM; under `C=CC1=C(C(=O)O)N2C(=O)[C@@H](NC(=O)/C(=N/OCC(=O)O)c3csc(N)n3)[C@H]2SC1`, 21 µM; under `COc1ccc(C(=O)N/N=C/c2sc3ccccc3c2O)cc1`, 44.2 µM. `Cc1ccc2nc(/C(C#N)=C\c3ccc([N+](=O)[O-])o3)[nH]c2c1`: the IC50 was 23.3 µM.

For the molecule `CN1CC=C(/C=C/c2ccc(-c3ccccc3)cc2)CC1`, the 50% inhibitory concentration (IC50) is 95.2 µM.

On to `CCn1cc(C(=O)O)c(=O)c2cc(F)c(N3CCN(C(=S)Nc4ccc(OC)cc4)CC3)cc21`, for which the concentration for half-maximal inhibition (IC50) was 5.64 µM.

In the case of `Clc1ccc(C(c2ccccc2)N2CCNCC2)cc1` (stereo unspecified), the IC50 is 144 µM. Then `O=C(O)c1cn(-c2ccc(F)cc2)c2cc(Cl)c(F)cc2c1=O`, with 89.8 µM; and `CO[C@H]1C=CO[C@@]2(C)Oc3c(C)c(O)c4c(O)c(c5c(c4c3C2=O)NC2(CCN(CC(C)C)CC2)N=5)=NC(=O)C(C)=CC=C[C@H](C)[C@H](O)[C@@H](C)[C@@H](O)[C@@H](C)[C@H](OC(C)=O)[C@@H]1C`, with 4.08 µM. Under `CC(Nc1nc(N2CCCC2)nc2ccccc12)c1ccccc1` (stereo unspecified) stands 149 µM.

For `CCc1ccc(CNCc2ccc(OCC(O)CN(C)Cc3ccccc3)cc2)nc1` (stereo unspecified), the 50% inhibitory concentration (IC50) is 146 µM.

On to `O=C(NC1CCCC1)c1ccc(Br)s1`, for which the IC50 was 34 µM. Under `COc1cc([N+](=O)[O-])cc(/C=N/NC(=O)C(O)(c2ccccc2)c2ccccc2)c1O` stands 57.5 µM; under `Cc1cccc2c1Sc1ccc(Cl)cc1CC2N1CCNCC1` (stereo unspecified), 32.7 µM.

As usually defined, the IC50 is the concentration needed to halve the response being measured.
